GI50 and IC50 data for 16 compounds are collected here from patent publication US12692264B2, “Pyrimidine or pyridine derivative, preparation method therefor, and application thereof in pharmacy” (ABBISKO THERAPEUTICS CO., LTD., priority 2021, dated 2026).

pIC50: −log10 of the molar value.

Assay type in all cases: cell-based
For experiment [1], the target named is Ba/F3 EGFR-D770-N771ins_SVD (Homo sapiens, UniProt P00533, DUP768-770, cells depend on it). In words: Cell proliferation study (CellTiter-Glo, 72 hrs), Ba/F3 EGFR-D770-N771ins_SVD. The conditions noted are these: CTG, * = average of multiple measurements, read-out: Ba/F3 EGFR-D770-N771ins_SVD IC50. The gist of the method: (§1)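 Cells were seeded overnight, then exposed for 72 hrs at 37 °C, 5% CO2 to 9 concentrations in 3.16-fold steps, 0.1% DMSO final, triplicate wells. Viability was read by CellTiter-Glo luminescence, with a T0 plate read at dosing. IC50 came from nonlinear sigmoidal dose-response fits.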

The next experiment concerns A431 (EGFR-WT). In words: Cell proliferation study (CellTiter-Glo, 72 hrs), A431. To be noted: Homo sapiens, A-431, A431 cells, CTG, * = average of multiple measurements. The gist of the method: as §1
The target in experiment [2] is Ba/F3 EGFR-V769_D770insASV (Homo sapiens, UniProt P00533, DUP767-769, cells depend on it). In words: Cell proliferation study (CellTiter-Glo, 72 hrs), Ba/F3 EGFR-V769_D770insASV. The conditions noted are these: CTG, * = average of multiple measurements, read-out: Ba/F3 EGFR-V769_D770insASV IC50. Summed up: as §1
In general terms: In ATP-based viability assays light output follows the ATP content of the culture.

Chain of Ba/F3 EGFR-D770-N771ins_SVD (P00533 with tags, fused parts or gaps DUP768-770): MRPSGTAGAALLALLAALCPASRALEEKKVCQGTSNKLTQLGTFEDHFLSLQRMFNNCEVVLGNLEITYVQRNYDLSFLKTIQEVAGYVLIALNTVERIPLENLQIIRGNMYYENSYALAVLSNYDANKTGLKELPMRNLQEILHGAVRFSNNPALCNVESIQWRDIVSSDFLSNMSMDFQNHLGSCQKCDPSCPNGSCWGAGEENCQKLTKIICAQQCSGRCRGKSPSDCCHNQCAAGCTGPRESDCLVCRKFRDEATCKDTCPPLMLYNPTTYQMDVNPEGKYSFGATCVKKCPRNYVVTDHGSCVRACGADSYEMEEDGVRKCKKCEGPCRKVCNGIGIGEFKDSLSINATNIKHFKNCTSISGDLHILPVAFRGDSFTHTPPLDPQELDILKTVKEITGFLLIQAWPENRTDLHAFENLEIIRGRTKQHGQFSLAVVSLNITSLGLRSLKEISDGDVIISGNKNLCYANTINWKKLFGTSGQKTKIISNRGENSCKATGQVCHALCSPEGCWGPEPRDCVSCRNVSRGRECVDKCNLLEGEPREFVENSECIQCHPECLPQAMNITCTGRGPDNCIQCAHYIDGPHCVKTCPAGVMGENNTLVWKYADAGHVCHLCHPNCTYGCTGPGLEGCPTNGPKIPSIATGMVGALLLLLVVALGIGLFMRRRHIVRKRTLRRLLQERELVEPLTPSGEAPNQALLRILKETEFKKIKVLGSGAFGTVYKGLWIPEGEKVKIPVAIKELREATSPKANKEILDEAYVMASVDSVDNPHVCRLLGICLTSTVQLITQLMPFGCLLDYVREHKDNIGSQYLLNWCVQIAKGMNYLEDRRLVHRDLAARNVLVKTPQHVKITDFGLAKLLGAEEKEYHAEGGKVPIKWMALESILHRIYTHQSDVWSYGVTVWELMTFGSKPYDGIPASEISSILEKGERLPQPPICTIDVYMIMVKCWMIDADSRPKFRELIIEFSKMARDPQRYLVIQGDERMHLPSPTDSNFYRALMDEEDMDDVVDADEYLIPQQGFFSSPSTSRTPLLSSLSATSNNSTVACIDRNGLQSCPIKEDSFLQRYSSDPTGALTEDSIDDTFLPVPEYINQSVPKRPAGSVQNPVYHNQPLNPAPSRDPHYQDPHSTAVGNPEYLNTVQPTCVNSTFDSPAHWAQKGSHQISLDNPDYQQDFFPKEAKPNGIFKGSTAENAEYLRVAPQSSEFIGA
Chain of Ba/F3 EGFR-V769_D770insASV (P00533 with tags, fused parts or gaps DUP767-769): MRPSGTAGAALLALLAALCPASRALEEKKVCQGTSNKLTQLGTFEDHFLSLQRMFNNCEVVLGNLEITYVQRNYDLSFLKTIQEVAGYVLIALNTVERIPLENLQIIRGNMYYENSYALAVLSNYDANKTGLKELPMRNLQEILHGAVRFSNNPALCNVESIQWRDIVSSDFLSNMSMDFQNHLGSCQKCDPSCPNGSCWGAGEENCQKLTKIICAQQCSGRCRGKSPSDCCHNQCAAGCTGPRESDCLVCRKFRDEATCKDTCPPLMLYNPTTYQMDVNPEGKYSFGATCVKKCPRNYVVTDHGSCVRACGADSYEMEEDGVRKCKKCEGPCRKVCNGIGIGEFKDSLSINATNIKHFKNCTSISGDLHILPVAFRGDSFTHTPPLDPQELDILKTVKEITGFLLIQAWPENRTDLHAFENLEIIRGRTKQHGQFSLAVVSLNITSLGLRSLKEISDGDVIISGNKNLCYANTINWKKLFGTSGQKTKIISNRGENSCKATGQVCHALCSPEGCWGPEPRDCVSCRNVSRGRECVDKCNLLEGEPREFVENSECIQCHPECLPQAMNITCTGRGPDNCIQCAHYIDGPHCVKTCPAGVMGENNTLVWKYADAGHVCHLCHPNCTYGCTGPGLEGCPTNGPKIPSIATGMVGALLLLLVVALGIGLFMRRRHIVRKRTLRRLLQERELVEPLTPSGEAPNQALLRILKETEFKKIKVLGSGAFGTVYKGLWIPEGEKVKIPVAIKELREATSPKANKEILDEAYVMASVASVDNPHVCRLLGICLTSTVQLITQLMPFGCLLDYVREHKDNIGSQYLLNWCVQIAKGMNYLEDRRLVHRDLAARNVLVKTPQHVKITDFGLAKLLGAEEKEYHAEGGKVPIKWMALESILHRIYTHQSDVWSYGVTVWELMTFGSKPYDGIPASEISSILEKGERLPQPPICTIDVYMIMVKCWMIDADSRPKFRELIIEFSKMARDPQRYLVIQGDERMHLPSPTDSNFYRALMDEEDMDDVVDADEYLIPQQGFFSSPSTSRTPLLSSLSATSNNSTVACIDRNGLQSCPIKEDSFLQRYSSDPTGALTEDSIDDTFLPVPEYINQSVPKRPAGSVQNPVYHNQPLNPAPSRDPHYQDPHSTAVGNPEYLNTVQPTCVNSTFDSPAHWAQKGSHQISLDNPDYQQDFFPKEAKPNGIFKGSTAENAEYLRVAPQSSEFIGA

`C=CC(=O)Nc1cc(Nc2ncc(C(=O)OC(C)C)c(N3CC(C)(C)c4nc(C)ccc43)n2)c(OC)cc1N1C[C@@H](F)C[C@@H]1CN(C)C` [Example 63, isopropyl 2-((5-acrylamido-4-((2R,4S)-2-((dimethylamino)methyl)-4-fluoro-pyrrolidin-1-yl)-2-methoxy-phenyl)amino)-4-(3,3,5-trimethyl-2,3-dihydro-1H-pyrrolo[3,2-b]pyridin-1-yl)pyrimidine-5-carboxylate]: the GI50 in experiment [1] turned out to be 10.7 nM; in experiment [2] it was 18.3 nM. In addition, in the experiment with A431 (EGFR-WT), the pIC50 – broadly, the negative decadic logarithm of the IC50, by convention in mol/L – was 6.96.
Take `C=CC(=O)Nc1cc(Nc2ncc(C(=O)OC(C)C)c(N3CC4(CC4)c4nc(C)ccc43)n2)c(OC)cc1N1C[C@@H](F)C[C@@H]1CN(C)C` [Example 64, isopropyl 2-((5-acrylamido-4-((2R,4S)-2-((di-methylamino)methyl)-4-fluoro-pyrrolidin-1-yl)-2-methoxy-phenyl)amino)-4-(5′-methyl-spiro(cyclopropane-1,3′-pyrrolo[3,2-b]pyridin)-1′(2′H)-yl)pyrimidine-5-carboxylate]: the GI50 amounted to 8.8 nM in experiment [1] and 12.3 nM in experiment [2]. This compound also showed a pIC50 in the experiment with A431 (EGFR-WT) of 7.40.
Take `C=CC(=O)Nc1cc(Nc2ncc(C(=O)OC(C)C)c(N3CC4(CC4)c4nc(C)ccc43)n2)c(OC)cc1NCCN(C)C` [Example 65, isopropyl 2-((5-acrylamido-4-((2-(dimethylami-no)ethyl)amino)-2-methoxy-phenyl)amino)-4-(5′-methylspiro(cyclo-propane-1,3′-pyrrolo[3,2-b]pyridin)-1′(2′H)-yl)pyrimidine-5-carboxylate]: the GI50 was 39 nM in experiment [1] and 34.4 nM in experiment [2]. The pIC50 with A431 (EGFR-WT) was 6.55.
For `C=CC(=O)Nc1cc(Nc2ncc(C(=O)OC(C)C)c(N3CC(C)(C)c4nc(C)ccc43)n2)c(OC)cc1N(C)CCN1CCC1` [Example 67, isopropyl 2-((5-acrylamido-4-((2-(azetidin-1-yl)ethyl)(methyl)amino)-2-methoxy-phenyl)amino)-4-(3,3,5-trimethyl-2,3-dihydro-1H-pyrrolo[3,2-b]pyridin-1-yl)pyrimidine-5-carboxylate] the same measures were 23.9 nM, 37.1 nM and 6.29.
Take `[2H]C([2H])([2H])N(CCN(C)C)c1cc(OC)c(Nc2ncc(C(=O)OC(C)C)c(N3c4ccc(C)nc4C(C)(C)C3([2H])[2H])n2)cc1NC(=O)C=C` [Example 71, isopropyl 2-((5-acrylamido-4-((2-(dimethylami-no)ethyl)(methyl-d3)amino)-2-methoxy-phenyl)amino)-4-(3,3,5-trimethyl-2,3-dihydro-1H-pyrrolo[3,2-b]pyridin-1-yl-2,2-d2)pyrimidine-5-carboxylate]: the figures for the GI50 in experiment [1] and in experiment [2] were 14.8 nM and 30.4 nM, respectively. Also, the negative logarithm of the IC50 (pIC50) in the experiment on A431 (EGFR-WT) was 7.18.
Regarding `[2H]C([2H])([2H])Oc1cc(N(CCN(C([2H])([2H])[2H])C([2H])([2H])[2H])C([2H])([2H])[2H])c(NC(=O)C=C)cc1Nc1ncc(C(=O)OC(C)C)c(N2CC(C)(C)c3nc(C)ccc32)n1` [Example 72, isopropyl 2-((5-acrylamido-4-((2-(bis(methyl-d3)amino)ethyl)(methyl-d3)amino)-2-(methoxy-d3)phenyl)amino)-4-(3,3,5-trimethyl-2,3-dihydro-1H-pyrrolo[3,2-b]pyridin-1-yl)pyrimidine-5-carboxylate], the GI50 in experiment [1] was 24.8 nM; in experiment [2] it was 35.3 nM. Moreover, the pIC50 with A431 (EGFR-WT) was 6.92.
For `[2H]C([2H])([2H])C1(C([2H])([2H])[2H])CN(c2nc(Nc3cc(NC(=O)C=C)c(N(C)CCN(C)C)cc3OC)ncc2C(=O)OC(C)C)c2ccc(C)nc21` [Example 73, isopropyl 2-((5-acrylamido-4-((2-(dimethylami-no)ethyl)(methyl)amino)-2-methoxy-phenyl)amino)-4-(5-methyl-3,3-bis(methyl-d3)-2,3-dihydro-1H-pyrrolo[3,2-b]pyridin-1-yl)pyrimidine-5-carboxylate], the GI50 in experiment [1] was 12.3 nM; in experiment [2], 34.8 nM. The compound also gave a pIC50 with A431 (EGFR-WT) of 7.05.
As to `C=CC(=O)Nc1cc(Nc2ncc(C(=O)OC(C)C)c(N3CC(C)(C)c4nc(C#CC)ccc43)n2)c(OC)cc1N1CC[C@@H](N(C)C)C1` [Example 74, isopropyl (R)-2-((5-acrylamido-4-(3-(dimethyl-amino)pyrrolidin-1-yl)-2-methoxy-phenyl)amino)-4-(3,3-dimethyl-5-(prop-1-yn-1-yl)-2,3-dihydro-1H-pyrrolo[3,2-b]pyridin-1-yl)pyrimidine-5-carboxylate], the GI50 amounted to 15.5 nM in experiment [1] and 43.6 nM in experiment [2]. In addition, the pIC50 in the experiment with A431 (EGFR-WT) was 7.00.
Regarding `C=CC(=O)Nc1cc(Nc2ncc(C(=O)OC(C)C)c(N3CC(C)(C)c4nc(C#CC)ccc43)n2)c(OC)cc1N1CC(N(C)C)C1` [Example 76, isopropyl 2-((5-acrylamido-4-(3-(dimethylami-no)azetidin-1-yl)-2-methoxyphenyl)ami-no)-4-(3,3-dimethyl-5-(prop-1-yn-1-yl)-2,3-dihydro-1H-pyrrolo[3,2-b]pyridin-1-yl)pyrimidine-5-carboxylate], the GI50 in experiment [1] is 30.9 nM; in experiment [2] it was 93.9 nM. This compound showed a pIC50 in the experiment on A431 (EGFR-WT) of 5.90.
Turning to `[2H]C([2H])([2H])N(CCN(C([2H])([2H])[2H])C([2H])([2H])[2H])c1cc(OC)c(Nc2ncc(C(=O)OC(C)C)c(N3CC(C)(C)c4nc(C)ccc43)n2)cc1NC(=O)C=C` [Example 77, isopropyl 2-((5-acrylamido-4-((2-(bis(methyl-d3)amino)ethyl)(methyl-d3)amino)-2-methoxyphenyl)amino)-4-(3,3,5-tri-methyl-2,3-dihydro-1H-pyrrolo[3,2-b]pyridin-1-yl)pyrimidine-5-carboxylate], the GI50 was found to be 11.7 nM in experiment [1] and 32.2 nM in experiment [2]. This compound also showed a pIC50 in the experiment with A431 (EGFR-WT) of 7.01.
For `[2H]C([2H])([2H])N(CCN(C([2H])([2H])[2H])C([2H])([2H])[2H])c1cc(OC)c(Nc2ncc(C(=O)OC(C)C)c(N3c4ccc(C)nc4C(C)(C)C3([2H])[2H])n2)cc1NC(=O)C=C` [Example 78, isopropyl 2-((5-acrylamido-4-((2-(bis(methyl-d3)amino)ethyl)(methyl-d3)amino)-2-methoxyphenyl)amino)-4-(3,3,5-tri-methyl-2,3-dihydro-1H-pyrrolo[3,2-b]pyridin-1-yl-2,2-d2)pyrimidine-5-carboxylate] the same measures were 12.3 nM, 36.4 nM and 7.14.
Take `C=CC(=O)Nc1cc(Nc2ncc(C(=O)OC(C)C)c(N3CC(C)(C)c4nc(C#CC)ccc43)n2)c(OC)cc1N1CCC[C@@H]1CN(C)C` [Example 79, isopropyl (R)-2-((5-acrylamido-4-(2-((dimethyl-amino)methyl)pyrrolidin-1-yl)-2-meth-oxyphenyl)amino)-4-(3,3-dimethyl-5-(prop-1-yn-1-yl)-2,3-dihydro-1H-pyrrolo[3,2-b]pyridin-1-yl)pyrimidine-5-carboxylate]: the GI50 in experiment [1] amounted to 20.2 nM; in experiment [2] it was 58.2 nM. In the experiment with A431 (EGFR-WT), the pIC50 is 6.60.
`C=CC(=O)Nc1cc(Nc2ncc(C(=O)OC(C)C)c(N3CC(C)(C)c4nc(C)ccc43)n2)c(OC(F)F)cc1N(C)CCN(C)C` [Example 81, isopropyl 2-((5-acrylamido-2-(difluoromethoxy)-4-((2-(dimethylamino)eth-yl)(methyl)amino)phenyl)amino)-4-(3,3,5-trimethyl-2,3-dihydro-1H-pyrrolo[3,2-b]pyridin-1-yl)pyrimidine-5-carboxylate]: the GI50 in experiment [1] is 9 nM; in experiment [2] it was 29.3 nM. For the same compound, the pIC50 in the experiment with A431 (EGFR-WT) is 6.89.
As to `[2H]C1([2H])N(c2nc(Nc3cc(NC(=O)C=C)c(N4C[C@@H](F)C[C@@H]4CN(C)C)cc3OC)ncc2C(=O)OC(C)C)c2ccc(C)nc2C1(C)C` [Example 82, isopropyl 2-((5-acrylamido-4-((2R,4S)-2-((di-methylamino)methyl)-4-fluoro-pyrrolidin-1-yl)-2-methoxy-phenyl)amino)-4-(3,3,5-trimethyl-2,3-dihydro-1H-pyrrolo[3,2-b]pyridin-1-yl-2,2-d2)pyrimidine-5-carboxylate], the GI50 stood at 11.2 nM in experiment [1] and 12.9 nM in experiment [2]. For the same compound, the pIC50 with A431 (EGFR-WT) is 7.12.
Take `C=CC(=O)Nc1cc(Nc2ncc(C(=O)OC(C)C)c(N3CC(C)(C)c4nc(C)ccc43)n2)c(OC)cc1N1CCC[C@@H]1CN(C)C` [Example 83, isopropyl (R)-2-((5-acrylamido-4-(2-((dimethyl-amino)methyl)pyrrolidin-1-yl)-2-meth-oxyphenyl)amino)-4-(3,3,5-trimethyl-2,3-dihydro-1H-pyrrolo[3,2-b]pyridin-1-yl)pyrimidine-5-carboxylate]: the GI50 in experiment [1] was 10.9 nM; in experiment [2] it was 13.6 nM. This compound had a pIC50 with A431 (EGFR-WT) of 7.24.
For `C=CC(=O)Nc1cc(Nc2ncc(C(=O)OC(C)C)c(N3CC(C)(C)c4nc(C#CC)ccc43)n2)c(OC)cc1N1C[C@@H](F)C[C@@H]1CN(C)C` [Example 84, isopropyl 2-((5-acrylamido-4-((2R,4S)-2-((di-methylamino)methyl)-4-fluoro-pyrrolidin-1-yl)-2-methoxy-phenyl)amino)-4-(3,3-dimethyl-5-(prop-1-yn-1-yl)-2,3-dihydro-1H-pyrrolo[3,2-b]pyridin-1-yl)pyrimidine-5-carboxylate], the GI50 in experiment [1] is 12 nM; in experiment [2] it was 12.6 nM. Besides, the pIC50 in the experiment with A431 (EGFR-WT) is 6.66.
